Measured values taken from ChEMBL document CHEMBL4184210, “Optimization of novel monobactams with activity against carbapenem-resistant Enterobacteriaceae - Identification of LYS228” (Bioorg Med Chem Lett, 2018).

Key:
Escherichia coli [1] = assay: microbe, parasite or virus in culture
Description: Antimicrobial activity against Escherichia coli expressing beta-lactamase CTXM-15 by CLSI broth microdilution method

Escherichia coli [2] = assay: microbe, parasite or virus in culture; remark: listed apart in the source
Description: Antimicrobial activity against Escherichia coli expressing beta-lactamase KPC-8 by CLSI broth microdilution method

Escherichia coli [3] = assay: microbe, parasite or virus in culture; remark: listed apart in the source
Description: Antimicrobial activity against Escherichia coli expressing beta-lactamase KPC-3 by CLSI broth microdilution method

Escherichia coli [4] = assay: microbe, parasite or virus in culture; remark: listed apart in the source
Description: Antimicrobial activity against Escherichia coli expressing beta-lactamase Oxa-48 by CLSI broth microdilution method

Escherichia coli [5] = assay: microbe, parasite or virus in culture; remark: listed apart in the source
Description: Antimicrobial activity against Escherichia coli expressing beta-lactamase GIM-1 by CLSI broth microdilution method

Escherichia coli [6] = assay: microbe, parasite or virus in culture; remark: listed apart in the source
Description: Antimicrobial activity against Escherichia coli expressing beta-lactamase IMI-1 by CLSI broth microdilution method

Escherichia coli [7] = assay: Antimicrobial activity against Escherichia coli expressing beta-lactamase TEM-1 by CLSI broth microdilution method; type: functional
Escherichia coli [8] = assay: microbe, parasite or virus in culture; remark: listed apart in the source
Description: Antimicrobial activity against Escherichia coli expressing beta-lactamase SME-1 by CLSI broth microdilution method

Escherichia coli [9] = assay: microbe, parasite or virus in culture; remark: listed apart in the source
Description: Antimicrobial activity against Escherichia coli expressing beta-lactamase VIM-1 by CLSI broth microdilution method

Escherichia coli [10] = assay: microbe, parasite or virus in culture; remark: listed apart in the source
Description: Antimicrobial activity against Escherichia coli expressing beta-lactamase Oxa-225 by CLSI broth microdilution method

Escherichia coli [11] = assay: microbe, parasite or virus in culture; remark: listed apart in the source
Description: Antimicrobial activity against Escherichia coli expressing beta-lactamase NMC-A by CLSI broth microdilution method

Escherichia coli [12] = assay: microbe, parasite or virus in culture; remark: listed apart in the source
Description: Antimicrobial activity against wild type Escherichia coli by CLSI broth microdilution method

Escherichia coli [13] = assay: Antimicrobial activity against Escherichia coli expressing beta-lactamase NDM-5 by CLSI broth microdilution method; type: functional
Escherichia coli [14] = assay: microbe, parasite or virus in culture; remark: listed apart in the source
Description: Antimicrobial activity against Escherichia coli expressing beta-lactamase MIR-1 by CLSI broth microdilution method

Escherichia coli [15] = assay: microbe, parasite or virus in culture; remark: listed apart in the source
Description: Antimicrobial activity against Escherichia coli expressing beta-lactamase TEM-47 by CLSI broth microdilution method

Escherichia coli [16] = assay: microbe, parasite or virus in culture; remark: listed apart in the source
Description: Antimicrobial activity against Escherichia coli expressing beta-lactamase IMP-1 by CLSI broth microdilution method

Escherichia coli [17] = assay: microbe, parasite or virus in culture; remark: listed apart in the source
Description: Antimicrobial activity against Escherichia coli expressing beta-lactamase PER-4 by CLSI broth microdilution method

Escherichia coli [18] = assay: microbe, parasite or virus in culture; remark: listed apart in the source
Description: Antimicrobial activity against Escherichia coli expressing beta-lactamase Oxa-18 by CLSI broth microdilution method

Escherichia coli [19] = assay: microbe, parasite or virus in culture; remark: listed apart in the source
Description: Antimicrobial activity against Escherichia coli expressing beta-lactamase CTXM-3 by CLSI broth microdilution method

Escherichia coli [20] = assay: microbe, parasite or virus in culture; remark: listed apart in the source
Description: Antimicrobial activity against Escherichia coli expressing beta-lactamase TEM-10 by CLSI broth microdilution method

Escherichia coli [21] = assay: microbe, parasite or virus in culture; remark: listed apart in the source
Description: Antimicrobial activity against Escherichia coli expressing beta-lactamase SPM-1 by CLSI broth microdilution method

Escherichia coli [22] = assay: Antimicrobial activity against Escherichia coli expressing beta-lactamase VEB-1 by CLSI broth microdilution method; type: functional
Escherichia coli [23] = assay: microbe, parasite or virus in culture; remark: listed apart in the source
Description: Antimicrobial activity against Escherichia coli expressing beta-lactamase CMY-2 by CLSI broth microdilution method

Escherichia coli [24] = assay: microbe, parasite or virus in culture; remark: listed apart in the source
Description: Antimicrobial activity against Escherichia coli expressing beta-lactamase DHA by CLSI broth microdilution method

Escherichia coli [25] = assay: microbe, parasite or virus in culture; remark: listed apart in the source
Description: Antimicrobial activity against Escherichia coli expressing beta-lactamase VEB-4 by CLSI broth microdilution method

Escherichia coli [26] = assay: microbe, parasite or virus in culture; remark: listed apart in the source
Description: Antimicrobial activity against Escherichia coli expressing beta-lactamase SHV-12 by CLSI broth microdilution method

Escherichia coli [27] = assay: microbe, parasite or virus in culture; remark: listed apart in the source
Description: Antimicrobial activity against Escherichia coli expressing beta-lactamase TEM-16 by CLSI broth microdilution method

Escherichia coli [28] = assay: microbe, parasite or virus in culture; remark: listed apart in the source
Description: Antimicrobial activity against Escherichia coli expressing beta-lactamase TEM-121 by CLSI broth microdilution method

Escherichia coli [29] = assay: microbe, parasite or virus in culture; remark: listed apart in the source
Description: Antimicrobial activity against Escherichia coli expressing beta-lactamase GES-1 by CLSI broth microdilution method

Escherichia coli [30] = assay: microbe, parasite or virus in culture; remark: listed apart in the source
Description: Antimicrobial activity against Escherichia coli expressing beta-lactamase KPC-4 by CLSI broth microdilution method

Escherichia coli [31] = assay: microbe, parasite or virus in culture; remark: listed apart in the source
Description: Antimicrobial activity against Escherichia coli expressing beta-lactamase Oxa-40 by CLSI broth microdilution method

Escherichia coli [32] = assay: microbe, parasite or virus in culture; remark: listed apart in the source
Description: Antimicrobial activity against Escherichia coli expressing beta-lactamase Oxa-10 by CLSI broth microdilution method

Escherichia coli [33] = assay: microbe, parasite or virus in culture; remark: listed apart in the source
Description: Antimicrobial activity against Escherichia coli expressing beta-lactamase P99 by CLSI broth microdilution method

Escherichia coli [34] = assay: microbe, parasite or virus in culture; remark: listed apart in the source
Description: Antimicrobial activity against Escherichia coli expressing beta-lactamase Oxa-23 by CLSI broth microdilution method

Escherichia coli [35] = assay: microbe, parasite or virus in culture; remark: listed apart in the source
Description: Antimicrobial activity against Escherichia coli expressing beta-lactamase Oxa-181 by CLSI broth microdilution method

Escherichia coli [36] = assay: microbe, parasite or virus in culture; remark: listed apart in the source
Description: Antimicrobial activity against Escherichia coli expressing beta-lactamase Oxa-160 by CLSI broth microdilution method

Escherichia coli [37] = assay: microbe, parasite or virus in culture; remark: listed apart in the source
Description: Antimicrobial activity against Escherichia coli expressing beta-lactamase PER-2 by CLSI broth microdilution method

Escherichia coli [38] = assay: microbe, parasite or virus in culture; remark: listed apart in the source
Description: Antimicrobial activity against Escherichia coli expressing beta-lactamase PER-1 by CLSI broth microdilution method

Escherichia coli [39] = assay: microbe, parasite or virus in culture; remark: listed apart in the source
Description: Antimicrobial activity against Escherichia coli expressing beta-lactamase Oxa-51 by CLSI broth microdilution method

Escherichia coli [40] = assay: microbe, parasite or virus in culture; remark: listed apart in the source
Description: Antimicrobial activity against Escherichia coli expressing beta-lactamase VEB-7 by CLSI broth microdilution method

Escherichia coli [41] = assay: microbe, parasite or virus in culture; remark: listed apart in the source
Description: Antimicrobial activity against Escherichia coli expressing beta-lactamase AmpC by CLSI broth microdilution method

Escherichia coli [42] = assay: Antimicrobial activity against Escherichia coli expressing beta-lactamase NDM-1 by CLSI broth microdilution method; type: functional
Escherichia coli [43] = assay: microbe, parasite or virus in culture; remark: listed apart in the source
Description: Antimicrobial activity against Escherichia coli expressing beta-lactamase TEM-24 by CLSI broth microdilution method

Escherichia coli [44] = assay: Antimicrobial activity against Escherichia coli expressing beta-lactamase KPC-2 by CLSI broth microdilution method; type: functional
Escherichia coli [45] = assay: microbe, parasite or virus in culture; remark: listed apart in the source
Description: Antimicrobial activity against Escherichia coli expressing beta-lactamase Oxa-146 by CLSI broth microdilution method

Measured: MIC

CC(C)(O/N=C(\C(=O)N[C@@H]1C(=O)N2C(C(=O)[O-])=C(C[n+]3ccccc3)CS[C@H]12)c1csc(N)n1)C(=O)O [CEFTAZIDIME]
8 µg/mL: Escherichia coli [1] | Escherichia coli [14] | Escherichia coli [33] | Escherichia coli [41] | Escherichia coli [44] | Escherichia coli [45]
32 µg/mL: Escherichia coli [3]
64 µg/mL: Escherichia coli [23] | Escherichia coli [27] | Escherichia coli [28] | Escherichia coli [29]
0.25 µg/mL: Escherichia coli [4] | Escherichia coli [6] | Escherichia coli [7] | Escherichia coli [11] | Escherichia coli [35]
2 µg/mL: Escherichia coli [19]
16 µg/mL: Escherichia coli [24]
1 µg/mL: Escherichia coli [10]
4 µg/mL: Escherichia coli [5] | Escherichia coli [15]
0.5 µg/mL: Escherichia coli [8] | Escherichia coli [36]
0.125 µg/mL: Escherichia coli [12] | Escherichia coli [31] | Escherichia coli [32] | Escherichia coli [34] | Escherichia coli [39]
> 64 µg/mL: Escherichia coli [2] | Escherichia coli [9] | Escherichia coli [13] | Escherichia coli [16] | Escherichia coli [17] | Escherichia coli [18] | Escherichia coli [20] | Escherichia coli [21] | Escherichia coli [22] | Escherichia coli [25] | Escherichia coli [26] | Escherichia coli [30] | Escherichia coli [37] | Escherichia coli [38] | Escherichia coli [40] | Escherichia coli [42] | Escherichia coli [43]

CC1(C)[C@H](NC(=O)/C(=N\OCc2cc(=O)c(O)cn2O)c2csc(N)n2)C(=O)N1OS(=O)(=O)O (stereo in doubt)
> 64 µg/mL: Escherichia coli [20] | Escherichia coli [37]
0.25 µg/mL: Escherichia coli [6] | Escherichia coli [11] | Escherichia coli [12] | Escherichia coli [16] | Escherichia coli [19] | Escherichia coli [23] | Escherichia coli [24] | Escherichia coli [29] | Escherichia coli [42]
16 µg/mL: Escherichia coli [18] | Escherichia coli [22] | Escherichia coli [27] | Escherichia coli [38] | Escherichia coli [43]
1 µg/mL: Escherichia coli [1]
≤ 0.03 µg/mL: Escherichia coli [31]
8 µg/mL: Escherichia coli [2] | Escherichia coli [25] | Escherichia coli [28] | Escherichia coli [36]
32 µg/mL: Escherichia coli [30]
0.125 µg/mL: Escherichia coli [4] | Escherichia coli [13] | Escherichia coli [32] | Escherichia coli [35]
> 32 µg/mL: Escherichia coli [26]
≤ 0.06 µg/mL: Escherichia coli [5] | Escherichia coli [9] | Escherichia coli [21]
0.5 µg/mL: Escherichia coli [3] | Escherichia coli [7] | Escherichia coli [8] | Escherichia coli [17] | Escherichia coli [33] | Escherichia coli [41] | Escherichia coli [44]
2 µg/mL: Escherichia coli [10] | Escherichia coli [14] | Escherichia coli [15] | Escherichia coli [40] | Escherichia coli [45]
0.06 µg/mL: Escherichia coli [34] | Escherichia coli [39]

CCN1CCN(C(=O)N[C@@H](C(=O)N[C@@H]2C(=O)N3[C@@H]2SC(C)(C)[C@@H]3C(=O)O)c2ccccc2)C(=O)C1=O [PIPERACILLIN]
32 µg/mL: Escherichia coli [22] | Escherichia coli [23] | Escherichia coli [33] | Escherichia coli [38] | Escherichia coli [40]
16 µg/mL: Escherichia coli [16] | Escherichia coli [43]
4 µg/mL: Escherichia coli [12]
64 µg/mL: Escherichia coli [6] | Escherichia coli [11] | Escherichia coli [15] | Escherichia coli [21] | Escherichia coli [24] | Escherichia coli [27] | Escherichia coli [28] | Escherichia coli [36]
> 64 µg/mL: Escherichia coli [1] | Escherichia coli [2] | Escherichia coli [3] | Escherichia coli [4] | Escherichia coli [5] | Escherichia coli [7] | Escherichia coli [8] | Escherichia coli [9] | Escherichia coli [10] | Escherichia coli [13] | Escherichia coli [18] | Escherichia coli [19] | Escherichia coli [20] | Escherichia coli [26] | Escherichia coli [29] | Escherichia coli [30] | Escherichia coli [31] | Escherichia coli [32] | Escherichia coli [34] | Escherichia coli [35] | Escherichia coli [37] | Escherichia coli [41] | Escherichia coli [42] | Escherichia coli [44] | Escherichia coli [45]
8 µg/mL: Escherichia coli [14] | Escherichia coli [17] | Escherichia coli [25] | Escherichia coli [39]
